What was measured:
[1] = tolerance of fluorescent whitening agent upon nails; format: in vivo; conditions: applied upon nails
Text: In a preferred embodiment, the composition according to the invention includes 2,5-bis(5-tert-butyl-benzoxazol-2-yl)thiophene as fluorescent whitening agent. 2,5-bis(5-tert-butyl-benzoxazol-2-yl)thiophene is known as FWA-184 and has CAS No: [7128-64-5].

[2] = stability of optical brightener in the composition; format: physicochemical; conditions: in composition of example 1
Text: FWA-184, also known as OB-184 or 2,5′-Bis[2-(5-tert-buty 1-2 benzoxazoly)thiophene is an optical brightener known for polymers, paints and detergents. It's suitable for use in polymers which come into contact with keratinous tissue and skin. Furthermore, it is stable in the present composition. […] It is important that the film-forming polymer is transparent to both visible ranges as well as the wavelengths which are absorbed by the fluorescent whitening agent.

- stability in the present composition [2]: stable
Structure (SMILES): CC(C)(C)c1ccc2oc(-c3ccc(-c4nc5cc(C(C)(C)C)ccc5o4)s3)nc2c1 [FWA-184, 2,5-bis(5-tert-butyl-benzoxazol-2-yl)thiophene]
- tolerance upon nails [1]: well tolerated

— US20210299022A1, “COMPOSITION FOR THE TREATMENT OF NAIL FUNGUS” (Oystershell NV, priority 2020, published 2021)
